In paper PMC5710999, “Statistical investigation of the full concentration range of fasted and fed simulated intestinal fluid on the equilibrium solubility of oral drugs” (European Journal of Pharmaceutical Sciences, 2018):
Entries after “also recorded” stand apart in the source; their conditions may differ.

Legend:
[1] = Equilibrium solubility in full range (fasted to fed) design of experiment simulated intestinal media; type: physicochemical; conditions: for Comparison of combined fasted and fed solubility data with the full range DoE: Mann-Whitney test on equilibrium solubility distributions; for Comparison between all solubility data sets (fasted, fed, combined, full range) / Comparison of published fasted DoE solubility distribution with full range DoE / Comparison of published fed DoE solubility distribution with full range DoE: Mann-Whitney test; for Comparison between all solubility data sets (fasted, fed, combined, full range): Fig. 2b; for Variability of equilibrium solubility values: Fig. 1 and 2; for Effect of pH on equilibrium solubility: pH 5 to 7; for Comparison of published fasted DoE solubility distribution with full range DoE: fasted state; for Comparison of published fed DoE solubility distribution with full range DoE: fed state
From the text: A quarter of the full factorial design of experiment with 7 factors (either a component concentration or a system parameter such as pH) and 2 levels (upper and lower limits) was constructed and analysed using Minitab®17.2.1. Minitab generated 32 different experiments by various combinations of the upper and lower limits of the 7 factors based on Table 1 (no centre point and no replicate). When designing and analysing the DoE assumptions were made. […] Only main effects and 2-way interactions are considered in the analysis and 3-way interactions or more were not considered. […] The single factors and factor interactions are confounded with 3 to 6-way interactions which were not included. There are three confounded 2-way factor interactions, sodium oleate and salt with buffer and monoglyceride, sodium oleate and buffer with salt and monoglyceride, sodium oleate and monoglyceride with salt and buffer. For these interactions if the result is significant then any conclusions must be drawn with caution as it might be the result of the four factors together or only one of the 2 way interactions. […] The main effect can be positive (+) or negative (−), but when it is involved in an interaction, the conclusion will be considered with the interactions (±).
The Kolmogorov normality test was used in Minitab® to assess the distribution of each data set, based on the result that all data sets have a non-normal distribution the Mann-Whitney test was applied to evaluate differences between two data sets.
A stream of nitrogen gas was used to remove the chloroform ensuring a dry film was produced. Water was added to reform the dried film, stirred to obtain a homogenous mixture, transferred to a volumetric flask (5 ml) and made to volume with water.
Salt and buffer stock solution: Sodium chloride (4.448 g) and monosodium phosphate (NaH2PO4) (2.395 g) were weighed into a 25 ml volumetric flask, dissolved and made up to the volume with water.
Sodium oleate: Sodium oleate (1.978 g) was weighed into a 25 ml volumetric flask, dissolved in water under gentle heat and made to final volume. Solution was then kept at 50 °C to aid solubilisation.
The concentration of each stock mixture has been designed to be 15 times greater than the upper limit concentration value required for the DoE, with the exception of sodium oleate where only a 5 times concentration was possible. The stock mixtures were combined to provide the 32 measurement solutions according to the DoE model.
This protocol has been previously validated to ensure equilibrium solubility is achieved after 24 h with no methodological interference ([Khadra et al., 2015], [Zhou et al., 2017]). A weight of powdered drug (10 mg) was added to a centrifuge tube (15 ml Corning®). The required volume of each stock solution (section above) and water was added to provide a final volume of 4 ml in every tube. pH was then adjusted to 5 or 7 using 0.1 M HCL or 0.1 M KOH. Tubes were shaken for 1 h at room temperature and then pH adjusted again as before. Tubes are then placed in an orbital shaker and incubated for 24 h at 37 °C and 240 rpm. Following incubation the tubes were checked for the presence of solid drug, then centrifuged (13,000 rpm, 5 min) and the supernatant (500 μl) was sampled to determine the solubilised drug concentration by HPLC.

[2] = design: method as in Zhou et al., 2017; conditions: fed media design of experiment; ref Zhou et al., 2017; cited from earlier work
[3] = design: method as in Khadra et al., 2015; conditions: ref Khadra et al., 2015, cited from earlier work; for Statistical significance of DoE factor Bile Salt on equilibrium solubility, Fstd / Statistical significance of DoE factor Oleate on equilibrium solubility, Fstd / Statistical significance of DoE factor pH on equilibrium solubility, Fstd / Statistical significance of DoE factor Lecithin on equilibrium solubility, Fstd / Statistical significance of DoE factor Buffer on equilibrium solubility, Fstd / Statistical significance of DoE factor Salt on equilibrium solubility, Fstd: fasted media design of experiment; for Effect of buffer on equilibrium solubility in the fasted study: fasted DoE
[4] = quoted without reference; cited from earlier work
[5] = cited from earlier work; for pKa: quoted without reference
[6] = full range DoE, standardised effect
[7] = full range media design of experiment, p < 0.05

Row | Compound | Comparison of combined fasted and fed solubility data with the full range DoE [1] | Variability of equilibrium solubility values ([1]; full range DoE) | Effect of sodium oleate on equilibrium solubility [1, 6] | Effect of pH on equilibrium solubility [1, 6] | Statistical significance of DoE factor Oleate on equilibrium solubility, Full [1, 7] | Statistical significance of DoE factor pH on equilibrium solubility, Full [1, 7] | Effect of bile salt on equilibrium solubility [1, 6] | Statistical significance of DoE factor Bile Salt on equilibrium solubility, Full [1, 7] | Statistical significance of DoE factor Bile Salt on equilibrium solubility, Fed [2] | Statistical significance of DoE factor Oleate on equilibrium solubility, Fed [2] | Statistical significance of DoE factor pH on equilibrium solubility, Fed [2] | Statistical significance of DoE factor Bile Salt on equilibrium solubility, Fstd [3] | Statistical significance of DoE factor Oleate on equilibrium solubility, Fstd [3] | Statistical significance of DoE factor pH on equilibrium solubility, Fstd [3] | log P [4] | Statistical significance of DoE factor Lecithin on equilibrium solubility, Fstd [3] | Statistical significance of DoE factor Buffer on equilibrium solubility, Fstd [3] | also measured
1 | C[C@@H](O[C@H]1OCCN(Cc2n[nH]c(=O)[nH]2)[C@H]1c1ccc(F)cc1)c1cc(C(F)(F)F)cc(C(F)(F)F)c1 [Aprepitant, aprepitant] | significantly different | more consistency | positively affected | significant effect | S | S | – | – | S | S | S | S | S | S | 4.5 | – | – | Comparison between all solubility data sets (fasted, fed, combined, full range) [1]: statistically significant difference between all data sets; Statistical significance of DoE factor Buffer on equilibrium solubility, Fed [2]: S; Statistical significance of DoE factor Lecithin on equilibrium solubility, Fed [2]: S; Statistical significance of DoE factor Salt on equilibrium solubility, Fed [2]: S
2 | COc1ccccc1OCCNCC(O)COc1cccc2[nH]c3ccccc3c12 (stereo not shown) [Carvedilol, carvedilol] | no significant difference | – | positively affected | significant effect | S | S | – | – | S | S | S | S | S | S | – | S | – | Comparison of published fasted DoE solubility distribution with full range DoE [1]: statistically equivalent; Statistical significance of DoE factor Buffer on equilibrium solubility, Fed [2]: S; Statistical significance of DoE factor Monoglyceride on equilibrium solubility, Fed [2]: S
3 | CCOC(=O)C1=C(C)NC(C)=C(C(=O)OC)C1c1cccc(Cl)c1Cl (stereo not shown) [Felodipine, felodipine] | significantly different | large variability | positive effect | affected | S | S | positive effect | S | S | S | S | S | S | S | 3.8 | S | – | Comparison of published fed DoE solubility distribution with full range DoE [1]: statistically equivalent; Effect of lecithin on equilibrium solubility [1, 6]: affected; Statistical significance of DoE factor Lecithin on equilibrium solubility, Full [1, 7]: S; Statistical significance of DoE factor Lecithin on equilibrium solubility, Fed [2]: S
4 | O=C1NC(=O)C(c2ccccc2)(c2ccccc2)N1 [Phenytoin, phenytoin] | no significant difference | more consistency; also recorded: very consistent | – | – | S | S | – | – | S | S | S | S | S | S | – | S | S | Comparison of published fasted DoE solubility distribution with full range DoE [1]: statistically equivalent; Statistical significance of DoE factor Monoglyceride on equilibrium solubility, Fed [2]: S; Effect of buffer on equilibrium solubility in the fasted study [3]: positive effect; Statistical significance of DoE factor Salt on equilibrium solubility, Fstd [3]: S
5 | CCCCCCCC/C=C\CCCCCCCC(=O)O [oleate, Sodium oleate] | – | – | – | – | – | – | – | – | – | – | – | – | – | – | – | – | – | pKa of acidic media factors ([5]; ref Holm et al., 2013): approximately 5

Further lines, with some results ahead:

Row | Comparison of combined fasted and fed solubility data with the full range DoE [1] | Variability of equilibrium solubility values ([1]; full range DoE) | Effect of sodium oleate on equilibrium solubility [1, 6] | Effect of pH on equilibrium solubility [1, 6] | Statistical significance of DoE factor Oleate on equilibrium solubility, Full [1, 7] | Statistical significance of DoE factor pH on equilibrium solubility, Full [1, 7] | Effect of bile salt on equilibrium solubility [1, 6] | Statistical significance of DoE factor Bile Salt on equilibrium solubility, Full [1, 7] | Compound | Statistical significance of DoE factor Bile Salt on equilibrium solubility, Fed [2] | Statistical significance of DoE factor Oleate on equilibrium solubility, Fed [2] | Statistical significance of DoE factor pH on equilibrium solubility, Fed [2] | Statistical significance of DoE factor Bile Salt on equilibrium solubility, Fstd [3] | Statistical significance of DoE factor Oleate on equilibrium solubility, Fstd [3] | Statistical significance of DoE factor pH on equilibrium solubility, Fstd [3] | log P [4] | Statistical significance of DoE factor Lecithin on equilibrium solubility, Fstd [3] | Statistical significance of DoE factor Buffer on equilibrium solubility, Fstd [3] | also measured
6 | no significant difference | larger variability | – | – | S | S | – | S | COc1ccc2c(c1)c(CC(=O)O)c(C)n2C(=O)c1ccc(Cl)cc1 [Indomethacin, indomethacin] | S | S | S | S | S | S | – | – | S | Effect of buffer on equilibrium solubility in the fasted study [3]: negative effect
7 | no significant difference | – | – | – | – | – | – | – | CC(C)(Sc1cc(C(C)(C)C)c(O)c(C(C)(C)C)c1)Sc1cc(C(C)(C)C)c(O)c(C(C)(C)C)c1 [Probucol, probucol] | – | – | – | – | – | – | 10.9 | – | – | Influence of any DoE factor on equilibrium solubility ([1]; full range DoE): not significantly influenced by any of the factors
8 | significantly different | large variability | positively affected | not | S | – | positively affects | S | CN1CC(=O)N2[C@H](c3ccc4c(c3)OCO4)c3[nH]c4ccccc4c3C[C@@H]2C1=O [Tadalafil, tadalafil] | S | S | – | S | S | S | – | S | S | Comparison between all solubility data sets (fasted, fed, combined, full range) [1]: statistically significant difference between all data sets; pKa [5]: 10; Statistical significance of DoE factor Salt on equilibrium solubility, Fstd [3]: S
9 | no significant difference | – | – | significant effect | – | S | positively affects | S | COc1cc(C(=O)NS(=O)(=O)c2ccccc2C)ccc1Cc1cn(C)c2ccc(NC(=O)OC3CCCC3)cc12 [Zafirlukast, zafirlukast] | S | – | S | S | S | S | – | S | – | Comparison of published fed DoE solubility distribution with full range DoE [1]: statistically equivalent; pKa [5]: 4.3
